# Experiments:
# Assay type in all cases: in vivo
# Barnyardgrass [1] = experiment: Post-emergence herbicidal activity, greenhouse; conditions: 4 WAT
# Description: (§1) A good grade of top soil is placed in aluminum pans having holes in the bottom and compacted to a depth of 0.95 to 1.27 cm. from the top of the pan. A predetermined number of seeds of each of several dicotyledonous and monocotyledonous annual plant species and/or vegetative propagules for the perennial plant species are placed on the soil and pressed into the soil surface. The seeds and/or vegetative propagules are covered with soil and leveled. The pans are then placed on a sand bench in the greenhouse and watered from below as needed. After the plants reach the desired age (two to three weeks), each pan except for the control pans is removed individually to a spraying chamber and sprayed by means of an atomizer operating at a positive air pressure of approximately 1.46 kg/cm^2 absolute. The atomizer contains 6 ml. of a solution or suspension of the chemical. In that 6 ml., is an amount of a cyclohexanone emulsifying agent mixture to give a spray solution or suspension which contains about 0.4% by weight of the emulsifier. The spray solution or suspension contains a sufficient amount of the candidate chemical in order to give application rates corresponding to those set forth in the tables. The spray solution is prepared by taking an aliquot of a 1.0% by weight stock solution or suspension of the candidate chemical in an organic solvent such as acetone or tetrahydrofuran or in water. The emulsifying agent employed is a mixture comprising 35 weight percent butylamine dodecylbenzene sulfonate and 65 weight percent of a tall oil ethylene oxide condensate having about 11 moles of ethylene oxide per mole of tall oil. The pans are returned to the greenhouse and watered as before and the injury to the plants as compared to the control is observed at approximately two and four weeks as indicated in the tables under WAT and the results recorded. In some instances, the two-week observations are omitted.
# (§2) The post-emergence herbicidal activity index used in Table I is as follows:
# (§3) The plant species utilized in these tests are identified by letter in accordance with the following legend: […]
# Lambsquarters [2] = experiment: Post-emergence herbicidal activity, greenhouse; conditions: 4 WAT
# Description: as §1, §2, §3
# Quackgrass [3] = experiment: Post-emergence herbicidal activity, greenhouse; conditions: Table I, 4 WAT
# Description: as §1, §2, §3
# Yellow Nutsedge [4] = experiment: Post-emergence herbicidal activity, greenhouse; conditions: Table I, 4 WAT
# Description: as §1, §2, §3
# Wheat = experiment: Post-emergence herbicidal activity, greenhouse; conditions: Table II, 4 WAT
# Description: as §1, §2, §3
# Wild Buckwheat = experiment: Post-emergence herbicidal activity, greenhouse; conditions: Table II, 4 WAT
# Description: as §1, §2, §3
# Downy Brome [5] = experiment: Post-emergence herbicidal activity, greenhouse; conditions: 4 WAT
# Description: as §1, §2, §3
# Morningglory [6] = experiment: Post-emergence herbicidal activity, greenhouse; conditions: 4 WAT
# Description: as §1, §2, §3
# Johnsongrass [7] = experiment: Post-emergence herbicidal activity, greenhouse; conditions: Table I, 4 WAT
# Description: as §1, §2, §3
# Cocklebur [8] = experiment: Post-emergence herbicidal activity, greenhouse; conditions: 4 WAT
# Description: as §1, §2, §3
# Sorghum = experiment: Post-emergence herbicidal activity, greenhouse; conditions: Table II, 4 WAT
# Description: as §1, §2, §3
# Sugar Beet = experiment: Post-emergence herbicidal activity, greenhouse; conditions: Table II, 4 WAT
# Description: as §1, §2, §3
# Soybean = experiment: Post-emergence herbicidal activity, greenhouse; conditions: Table II, 4 WAT
# Description: as §1, §2, §3
# Rice = experiment: Post-emergence herbicidal activity, greenhouse; conditions: Table II, 4 WAT
# Description: as §1, §2, §3
# Canada Thistle [9] = experiment: Post-emergence herbicidal activity, greenhouse; conditions: Table I, 4 WAT
# Description: as §1, §2, §3
# Velvetleaf [10] = experiment: Post-emergence herbicidal activity, greenhouse; conditions: 4 WAT
# Description: as §1, §2, §3
# Crabgrass = experiment: Post-emergence herbicidal activity, greenhouse; conditions: Table II, 4 WAT
# Description: as §1, §2, §3
# Panicum Spp = experiment: Post-emergence herbicidal activity, greenhouse; conditions: Table II, 4 WAT
# Description: as §1, §2, §3
# Smartweed [11] = experiment: Post-emergence herbicidal activity, greenhouse; conditions: 4 WAT
# Description: as §1, §2, §3
# Hemp Sesbania = experiment: Post-emergence herbicidal activity, greenhouse; conditions: Table II, 4 WAT
# Description: as §1, §2, §3
# Barnyardgrass [12] = experiment: Pre-emergent herbicidal activity; conditions: Table III; 11.2 kg/h; 2 WAT
# Description: (§4) A good grade of top soil is placed in aluminum pans and compacted to a depth of 0.95 to 1.27 cm. from the top of each pan. A predetermined number of seeds or vegetative propagules of each of several plant species are placed on top of the soil in each pan and then pressed down. Herbicidal compositions prepared as in the previous example are applied by admixture with or incorporation in the top layer of soil.
# (§5) In this method, the soil required to cover the seeds and propagules is weighed and admixed with a herbicidal composition containing a known amount of the active ingredient (compound of this invention). The pans are then filled with the admixture and leveled. Watering is carried out by permitting the soil in the pans to absorb moisture through apertures in the pan bottoms. The seed and propagule containing pans are placed on a wet sand bench and maintained for approximately two weeks under ordinary conditions of sunlight and watering. At the end of this period, the number of emerged plants of each species is noted and compared to an untreated control.
# (§6) The pre-emergent herbicidal activity index used below is based upon average percent control of each species as follows:
# (§7) Plant species in the table are identified by the same code letters used in the previous example.
# Lambsquarters [13] = experiment: Pre-emergent herbicidal activity; conditions: Table III; 11.2 kg/h; 2 WAT
# Description: as §4, §5, §6, §7
# Quackgrass [14] = experiment: Pre-emergent herbicidal activity; conditions: Table III; 11.2 kg/h; 2 WAT
# Description: as §4, §5, §6, §7
# Yellow Nutsedge [15] = experiment: Pre-emergent herbicidal activity; conditions: Table III; 11.2 kg/h; 2 WAT
# Description: as §4, §5, §6, §7
# Downy Brome [16] = experiment: Pre-emergent herbicidal activity; conditions: Table III; 11.2 kg/h; 2 WAT
# Description: as §4, §5, §6, §7
# Morningglory [17] = experiment: Pre-emergent herbicidal activity; conditions: Table III; 11.2 kg/h; 2 WAT
# Description: as §4, §5, §6, §7
# Johnsongrass [18] = experiment: Pre-emergent herbicidal activity; conditions: Table III; 11.2 kg/h; 2 WAT
# Description: as §4, §5, §6, §7
# Cocklebur [19] = experiment: Pre-emergent herbicidal activity; conditions: Table III; 11.2 kg/h; 2 WAT
# Description: as §4, §5, §6, §7
# Canada Thistle [20] = experiment: Pre-emergent herbicidal activity; conditions: Table III; 11.2 kg/h; 2 WAT
# Description: as §4, §5, §6, §7
# Velvetleaf [21] = experiment: Pre-emergent herbicidal activity; conditions: Table III; 11.2 kg/h; 2 WAT
# Description: as §4, §5, §6, §7
# Smartweed [22] = experiment: Pre-emergent herbicidal activity; conditions: Table III; 11.2 kg/h; 2 WAT
# Description: as §4, §5, §6, §7
compound,measurement,setting,value
"CCCCCCCCSSN(CC(=O)OC)CP(=O)(Oc1ccccc1)Oc1ccccc1 [II, Glycine, N-[(diphenoxyphosphinyl)methyl]-N-(octyldithio)-, methyl ester]",post-emergence herbicidal activity index,"Barnyardgrass [1]; Table I, 5.6 kg/h",2 (50-74% control)
same,post-emergence herbicidal activity index,"Barnyardgrass [1]; Table I, 11.2 kg/h",2 (50-74% control)
same,post-emergence herbicidal activity index,"Barnyardgrass [1]; Table II, 0.28 kg/h",0 (0- 24% control)
same,post-emergence herbicidal activity index,"Barnyardgrass [1]; Table II, 1.12 kg/h",1 (25-49% control)
same,post-emergence herbicidal activity index,"Barnyardgrass [1]; Table II, 5.6 kg/h",3 (75-99% control)
same,post-emergence herbicidal activity index,"Lambsquarters [2]; Table I, 5.6 kg/h",3 (75-99% control)
same,post-emergence herbicidal activity index,"Lambsquarters [2]; Table I, 11.2 kg/h",4 (100% control)
same,post-emergence herbicidal activity index,"Lambsquarters [2]; Table II, 0.28 kg/h",0 (0- 24% control)
same,post-emergence herbicidal activity index,"Lambsquarters [2]; Table II, 1.12 kg/h",2 (50-74% control)
same,post-emergence herbicidal activity index,"Lambsquarters [2]; Table II, 5.6 kg/h",3 (75-99% control)
same,post-emergence herbicidal activity index,Quackgrass [3]; 5.6 kg/h,3 (75-99% control)
same,post-emergence herbicidal activity index,Quackgrass [3]; 11.2 kg/h,1 (25-49% control)
same,post-emergence herbicidal activity index,Yellow Nutsedge [4]; 5.6 kg/h,1 (25-49% control)
same,post-emergence herbicidal activity index,Yellow Nutsedge [4]; 11.2 kg/h,2 (50-74% control)
same,post-emergence herbicidal activity index,Wheat; 0.28 kg/h,0 (0- 24% control)
same,post-emergence herbicidal activity index,Wheat; 1.12 kg/h,0 (0- 24% control)
same,post-emergence herbicidal activity index,Wheat; 5.6 kg/h,3 (75-99% control)
same,post-emergence herbicidal activity index,Wild Buckwheat; 0.28 kg/h,0 (0- 24% control)
same,post-emergence herbicidal activity index,Wild Buckwheat; 1.12 kg/h,0 (0- 24% control)
same,post-emergence herbicidal activity index,Wild Buckwheat; 5.6 kg/h,3 (75-99% control)
same,post-emergence herbicidal activity index,"Downy Brome [5]; Table I, 5.6 kg/h",2 (50-74% control)
same,post-emergence herbicidal activity index,"Downy Brome [5]; Table I, 11.2 kg/h",1 (25-49% control)
same,post-emergence herbicidal activity index,"Downy Brome [5]; Table II, 0.28 kg/h",0 (0- 24% control)
same,post-emergence herbicidal activity index,"Downy Brome [5]; Table II, 1.12 kg/h",0 (0- 24% control)
same,post-emergence herbicidal activity index,"Downy Brome [5]; Table II, 5.6 kg/h",2 (50-74% control)
same,post-emergence herbicidal activity index,"Morningglory [6]; Table I, 5.6 kg/h",2 (50-74% control)
same,post-emergence herbicidal activity index,"Morningglory [6]; Table I, 11.2 kg/h",2 (50-74% control)
same,post-emergence herbicidal activity index,"Morningglory [6]; Table II, 0.28 kg/h",1 (25-49% control)
same,post-emergence herbicidal activity index,"Morningglory [6]; Table II, 1.12 kg/h",1 (25-49% control)
same,post-emergence herbicidal activity index,"Morningglory [6]; Table II, 5.6 kg/h",3 (75-99% control)
same,post-emergence herbicidal activity index,Johnsongrass [7]; 5.6 kg/h,3 (75-99% control)
same,post-emergence herbicidal activity index,Johnsongrass [7]; 11.2 kg/h,3 (75-99% control)
same,post-emergence herbicidal activity index,"Cocklebur [8]; Table I, 5.6 kg/h",4 (100% control)
same,post-emergence herbicidal activity index,"Cocklebur [8]; Table I, 11.2 kg/h",3 (75-99% control)
same,post-emergence herbicidal activity index,"Cocklebur [8]; Table II, 0.28 kg/h",0 (0- 24% control)
same,post-emergence herbicidal activity index,"Cocklebur [8]; Table II, 1.12 kg/h",1 (25-49% control)
same,post-emergence herbicidal activity index,"Cocklebur [8]; Table II, 5.6 kg/h",3 (75-99% control)
same,post-emergence herbicidal activity index,Sorghum; 0.28 kg/h,0 (0- 24% control)
same,post-emergence herbicidal activity index,Sorghum; 1.12 kg/h,1 (25-49% control)
same,post-emergence herbicidal activity index,Sorghum; 5.6 kg/h,3 (75-99% control)
same,post-emergence herbicidal activity index,Sugar Beet; 0.28 kg/h,0 (0- 24% control)
same,post-emergence herbicidal activity index,Sugar Beet; 1.12 kg/h,0 (0- 24% control)
same,post-emergence herbicidal activity index,Sugar Beet; 5.6 kg/h,3 (75-99% control)
same,post-emergence herbicidal activity index,Soybean; 0.28 kg/h,0 (0- 24% control)
same,post-emergence herbicidal activity index,Soybean; 1.12 kg/h,0 (0- 24% control)
same,post-emergence herbicidal activity index,Soybean; 5.6 kg/h,2 (50-74% control)
same,post-emergence herbicidal activity index,Rice; 0.28 kg/h,0 (0- 24% control)
same,post-emergence herbicidal activity index,Rice; 1.12 kg/h,1 (25-49% control)
same,post-emergence herbicidal activity index,Rice; 5.6 kg/h,3 (75-99% control)
same,post-emergence herbicidal activity index,Canada Thistle [9]; 5.6 kg/h,0 (0- 24% control)
same,post-emergence herbicidal activity index,Canada Thistle [9]; 11.2 kg/h,1 (25-49% control)
same,post-emergence herbicidal activity index,"Velvetleaf [10]; Table I, 5.6 kg/h",1 (25-49% control)
same,post-emergence herbicidal activity index,"Velvetleaf [10]; Table I, 11.2 kg/h",3 (75-99% control)
same,post-emergence herbicidal activity index,"Velvetleaf [10]; Table II, 0.28 kg/h",0 (0- 24% control)
same,post-emergence herbicidal activity index,"Velvetleaf [10]; Table II, 1.12 kg/h",0 (0- 24% control)
same,post-emergence herbicidal activity index,"Velvetleaf [10]; Table II, 5.6 kg/h",2 (50-74% control)
same,post-emergence herbicidal activity index,Crabgrass; 0.28 kg/h,0 (0- 24% control)
same,post-emergence herbicidal activity index,Crabgrass; 1.12 kg/h,2 (50-74% control)
same,post-emergence herbicidal activity index,Crabgrass; 5.6 kg/h,4 (100% control)
same,post-emergence herbicidal activity index,Panicum Spp; 0.28 kg/h,0 (0- 24% control)
same,post-emergence herbicidal activity index,Panicum Spp; 1.12 kg/h,0 (0- 24% control)
same,post-emergence herbicidal activity index,Panicum Spp; 5.6 kg/h,3 (75-99% control)
same,post-emergence herbicidal activity index,"Smartweed [11]; Table I, 5.6 kg/h",2 (50-74% control)
same,post-emergence herbicidal activity index,"Smartweed [11]; Table I, 11.2 kg/h",4 (100% control)
same,post-emergence herbicidal activity index,"Smartweed [11]; Table II, 0.28 kg/h",0 (0- 24% control)
same,post-emergence herbicidal activity index,"Smartweed [11]; Table II, 1.12 kg/h",1 (25-49% control)
same,post-emergence herbicidal activity index,"Smartweed [11]; Table II, 5.6 kg/h",2 (50-74% control)
same,post-emergence herbicidal activity index,Hemp Sesbania; 0.28 kg/h,0 (0- 24% control)
same,post-emergence herbicidal activity index,Hemp Sesbania; 1.12 kg/h,0 (0- 24% control)
same,post-emergence herbicidal activity index,Hemp Sesbania; 5.6 kg/h,1 (25-49% control)
same,pre-emergent herbicidal activity index,Barnyardgrass [12],0 (0-24% control)
same,pre-emergent herbicidal activity index,Lambsquarters [13],0 (0-24% control)
same,pre-emergent herbicidal activity index,Quackgrass [14],0 (0-24% control)
same,pre-emergent herbicidal activity index,Yellow Nutsedge [15],0 (0-24% control)
same,pre-emergent herbicidal activity index,Downy Brome [16],0 (0-24% control)
same,pre-emergent herbicidal activity index,Morningglory [17],0 (0-24% control)
same,pre-emergent herbicidal activity index,Johnsongrass [18],2 (50-74% control)
same,pre-emergent herbicidal activity index,Cocklebur [19],0 (0-24% control)
same,pre-emergent herbicidal activity index,Canada Thistle [20],1 (25-49% control)
same,pre-emergent herbicidal activity index,Velvetleaf [21],0 (0-24% control)
same,pre-emergent herbicidal activity index,Smartweed [22],0 (0-24% control)
